# From patent US12383530B2, “Pharmaceutical combination for the treatment of melanoma” (Piramal Enterprises Limited, priority 2013, dated 2025)
# Several values for one entry are separate records, joined by “and”; a condition that tells them apart may be missing. Equal values may be shown once.
# Assays:
# G361 melanoma cells [1] = test: Analysis of cell cycle distribution using flow cytometry, G361; assay type: cell-based, human; conditions: 5 days; for apoptosis (sub G1 phase): 1 μM of each compound, alone or together
# Description: The G361/SK-MEL3 melanoma cells were seeded in […] tissue culture flasks. After 24 h, G361 cells were treated with: i) compound A (1 μM); ii) vemurafenib (1 μM); and iii) compound A (1 μM) and vemurafenib (1 μM) together for 5 days.
# (§1) The control cells were left untreated for 5 days. Both detached and adherent cells were harvested at the end of 5 days. The cells were washed twice with approximately 5 mL of phosphate buffered saline (PBS) with centrifugation at 1000 rpm for 10 min. The cells were resuspended in 500 μL of PBS and fixed in 500 μL ice-cold 70% ethanol. The fixed cells were incubated at room temperature for 30 min, spun at 1000 rpm for 10 min. To the cell pellet, 1 mL of chilled 70% ethanol was added and stored below 0° C. till further analysis. The cells were washed twice with PBS to remove fixative and re-suspended in 250 μL PBS. To this 12.5 μL of propidium iodide (1 mg/ml in PBS) and 12.5 μL Rnase A (1 mg/mL) was added. After incubation at 37° C. for 30 min, the cells were analyzed using flow cytometry.
# (§2) A flow cytometer (Becton Dickinson FACS Calibur, USA) was used for these studies in accordance with the manufacturer's recommendations. The argon ion laser set at 488 nm was used as an excitation source. Cells with DNA content between 2n and 4n were designated as being in G1, S and G2/M phases of the cell cycle, as defined by the level of red fluorescence. […] The number of cells in each cell cycle compartment was expressed as a percentage of the total number of cells present.
# SK-MEL3 melanoma cells = test: Analysis of cell cycle distribution using flow cytometry, SK-MEL3; assay type: cell-based; conditions: 5 days
# Description: In case of SK-MEL3 melanoma cells, the cells were treated with: i) compound A (1 μM); ii) vemurafenib (10 μM); and iii) compound A (1 μM) and vemurafenib (10 μM) together for 5 days.
# as §1, §2
# G361 melanoma cells [2] = test: Annexin V-FITC staining for detection of early apoptosis; assay type: cell-based, human; conditions: 1 μM of each compound, alone or together, 24 h
# Description: Annexin V-FITC is a sensitive probe for identifying apoptotic cells. During early apoptosis, the membrane phospholipid phosphatidyl serine (PS) is translocated from the inner to the outer leaflet of the plasma membrane, thereby exposing PS to the external cellular environment. Annexin V is a 35-36 kDa Calcium dependent phospholipid binding protein that has a high affinity for PS and binds to cells with exposed PS.
# The melanoma cells G361 was seeded in […] tissue culture flasks. After 24 h, cells were treated with: i) compound A (1 μM); ii) vemurafenib (1 μM); and iii) compound A (1 μM) and vemurafenib (1 μM) together; for 24 h. The control cells were left untreated for 24 h. Medium containing floating cells were collected and pooled with the adherent cells after harvesting with trypsin at the different time points. The cells were washed twice with cold PBS with centrifugation at 1000 rpm for 10 minutes. The cell pellet was resuspended in 1× binding buffer (10 mm HEPES pH 7.4, 140 mM NaCl, 2.5 mM CaCl2) at a concentration of 1×10^6 cells/mL. 100 μL of the solution (1×10^5 cells) were stained with Annexin V-FITC and propidium iodide. The cells were incubated for 15 min at room temperature (25-30° C.) in the dark and the sample was analysed by flow cytometry.
# [3] = system: A375 (BRAFV600E mutated) cell line; test: CCK8 live cell dehydrogenase cytotoxicity assay, A375 (96-well); assay type: cell-based, human; conditions: 48 h
# Description: (§3) The cells were then treated with the respective test compounds.
# (§4) At the end of the incubation periods, the plates were assayed using the CCK8 cytotoxicity assay protocol. The synergism was determined by the combination index (CI) calculated using the Compusyn software by Chou and Talalay (4). CI<1 is synergistic, CI=1 is additive and CI>1 is antagonistic.
# (§5) Statistical analysis was performed using the Student t test, and a p value of <0.05 was considered significant. Data are expressed as the mean±standard error of the mean (SEM). The mean value was obtained from at least two independent experiments, each performed in triplicate.
# (§6) Logarithmically growing cells were plated at a density of 3×10^3 cells/well and allowed to recover for 16-18 h. […] After 48 h, cell toxicity was determined by CCK-8 reagent (Dojindo Molecular Technologies, Inc, Maryland, and Japan). In accordance with the manufacturer's instructions, 5 μL/well CCK-8 reagent was added and plates were incubated for 2 h. The toxicity was determined by measuring the absorbance on Tecan Sapphire multi-fluorescence micro-plate reader at a wavelength of 450 nm corrected to 650 nm and normalized to controls. All the experiments were performed twice in triplicates.
# [4] = system: G361 (BRAFV600E mutated) cell line; test: CCK8 live cell dehydrogenase cytotoxicity assay, G361 (96-well); assay type: cell-based, human; conditions: 48 h
# Description: as §3, §4, §5, §6
# [5] = system: MDAMB-435S (BRAFV600E mutated) cell line; test: CCK8 live cell dehydrogenase cytotoxicity assay, MDAMB-435S (96-well); assay type: cell-based, human; conditions: 48 h
# Description: as §3, §4, §5, §6
# [6] = system: A375 (BRAFV600E mutated) cell line; test: CCK8 live cell dehydrogenase assay, A375 (384-well, Example 2); assay type: cell-based, human; conditions: A375 parental, single agent, 48 h
# Description: Logarithmically growing human BRAFV600E mutated melanoma cells were seeded at a density of 1500 cells/well in 30 μL of Dulbecco's Modified Eagle medium medium (DMEM) in 384-well plate (Corning, USA) using Tecan automated platform (FreedomEvo Liquid handling system) and incubated for about 12-16 h to allow the cells to adhere. […] The controls used were only cells or cells along with the vehicle (DMSO).
# The plates were incubated for 48 h in humidified 5% CO2 incubator at 37°±1° C. Post incubation the plates were assayed using the CCK8 reagent (Dojindo Molecular Technologies, Inc, Maryland, and Japan). In accordance with the manufacturer's instructions, 3 μL CCK-8 reagent was added in each well of the 384 well plate and plates were incubated for 2 h. The toxicity was determined by measuring the absorbance on Tecan Sapphire multi-fluorescence micro-plate reader at a wavelength of 450 nm normalized to controls. All the experiments were performed in quadruplets.
# [7] = system: A375R cell line (vemurafenib resistant); test: CCK8 live cell dehydrogenase assay, A375R (384-well, Example 2); assay type: cell-based, human; conditions: single agent, 48 h
# Description: The cytotoxicity studies using all the test compounds as single agents and in combinations were carried out using the CCK8 live cell dehydrogenase assay.
# Logarithmically growing human BRAFV600E mutated melanoma cells were seeded at a density of 1500 cells/well in 30 μL of Dulbecco's Modified Eagle medium medium (DMEM) in 384-well plate (Corning, USA) using Tecan automated platform (FreedomEvo Liquid handling system) and incubated for about 12-16 h to allow the cells to adhere. The cells were then treated for 48 h with different doses of compound A and anticancer agents (vemurafenib or dabrafenib or trametinib) as monotherapy (used singly) and in combinations. Studies using different dosages were carried out for each combination (e.g. combination of compound A and vemurafenib). […]
# The plates were incubated for 48 h in humidified 5% CO2 incubator at 37°±1° C. […] The toxicity was determined by measuring the absorbance on Tecan Sapphire multi-fluorescence micro-plate reader at a wavelength of 450 nm normalized to controls. […]
# The potency of the combination was quantified using Calcusyn software (Biosoft, Ferguson, MO, USA) which is based on the Chou Talalay method that calculates a combination index (CI) with CI values less than 1 indicating synergy.
SMILES,apoptosis (sub G1 phase) (G361 melanoma cells [1]),"G1 arrest (G361 melanoma cells [1]; vemurafenib 1 μM, control cells 72.36%)",apoptosis (sub G1 phase) (SK-MEL3 melanoma cells; vemurafenib 10 μM alone),"G1 arrest (SK-MEL3 melanoma cells; vemurafenib 10 μM, control cells 67.38%)",cells in early apoptosis (annexin stained cells) (G361 melanoma cells [2]),"inhibition at 1 µM ([3]; Homo sapiens, A-375, A375, vemurafenib 1 μM alone, read-out: inhibition of cells)","inhibition at 1 µM ([4]; Homo sapiens, G-361, G361, vemurafenib 1 μM alone, read-out: inhibition of cells)","inhibition at 1 µM ([5]; Homo sapiens, MDA-MB-435S, MDA-MB435S, vemurafenib 1 μM alone, read-out: inhibition of cells)",apoptosis (sub G1 phase) (SK-MEL3 melanoma cells; compound A 1 μM alone),"inhibition of cells ([3]; A375, compound A 3 μM alone)","inhibition of cells ([4]; G361, compound A 0.3 μM alone)","inhibition of cells ([5]; MDA-MB435S, compound A 1 μM alone)","IC50 ([5]; MDAMB435S, cytotoxicity, Hydrochloride, read-out: IC50 in μM (±SEM))",sensitivity of the cell line (dose response curve) [6],sensitivity of the cell line (dose response curve) [7]
"CCCS(=O)(=O)Nc1ccc(F)c(C(=O)c2c[nH]c3ncc(-c4ccc(Cl)cc4)cc23)c1F [vemurafenib, reference compound]",2.3%,91.94%,15.12%,76.78%,20%,23%,30%,31%,–,–,–,–,–,–,–
"CN1CC[C@@H](c2c(O)cc(O)c3c(=O)cc(-c4ccc(C(F)(F)F)cc4Cl)oc23)[C@@H]1CO.Cl (relative stereo) [compound A, (+)-trans-2-(2-chloro-4-trifluoromethylphenyl)-5,7-dihydroxy-8-(2-hydroxy-methyl-1-methylpyrrolidin-3-yl)-chromen-4-one Hydrochloride]",9.48%,–,–,–,8%,–,–,–,19.63%,46%,2%,32%,0.85 µM and 0.7 µM,equally sensitive,equally sensitive
